# Test results from US20250127778A1, “CANCER IMMUNOTHERAPY COMPOSITION CONTAINING INTERACTION INHIBITOR OF STING AND TRIM29 AS ACTIVE INGREDIENT” (SPARK BIOPHARMA, INC, priority 2021, published 2025).
# Experiments:
# [1] = system: phosphorylation of downstream signaling proteins TBK1 and IRF3; assay: Western blotting of STING sub-immune signaling pathway activation; assay type: cell-based; settings: cGAMP alone; FIG. 7
# Method: First, the A431 cell line was seeded in a transparent 12-well plate and cultured for one day. Thereafter, the cells were treated with the compounds of Formulas 1 to 6, respectively, and then cultured for additional 24 hours. Finally, after supernatant culture medium of the cells was removed, the remaining supernatant was diluted and removed with PBS (phosphate buffer saline) to prepare a Western blotting sample. All procedures for preparing Western blotting sample were performed at 4° C. […] The protein concentration of the supernatant was measured by using the Micro BCA™ protein assay kit (ThermoFisher) according to the protocol of the manufacturer. […] The treated samples were analyzed by SDS-PAGE, then transferred to a PVDF membrane, and cultured in a TBST solution containing 4% BSA for 30 minutes. […] Finally, after four TBST washing processes, the solution was developed with an ECL (enhanced chemiluminescence) prime solution of Amersham, the chemical luminescence signal was measured by using ChemiDoc MP of Bio-Rad Laboratories, Inc., the obtained results were quantified by using the ImageLab 6.0 program, and the results were plotted by using the Prism 8.0 program. […]
# [2] = Body weight and toxicity signals in CT26 syngeneic mouse model; assay type: in vivo; settings: treated individually or in combination, FIG. 24
# Method: 2×10^5 CT26 cell lines were prepared in 50 μL culture medium and subcutaneously injected. […] The cGAMP solution was manufactured with a final composition of PEG400:distilled water=40:60, and 20 μL was injected each time. The solution of the compound of Formula 1 was manufactured with the composition of DMSO:PEG400:distilled water=2:40:58, and 20 μL was injected each time. The cGAMP solution was injected once every two days, four times in total, and the solution of the compound of Formula 1 was injected once every four days, two times in total, starting with the second administration of cGAMP. The size of the tumor was measured by using calipers every two days, and the volume thereof was calculated as (length×width×height/2). The body weight of the mice was also measured every two days.
structure (smiles),measurement,setting,value
"Nc1nc2c(ncn2[C@@H]2O[C@@H]3COP(=O)(O)O[C@H]4[C@@H](O)[C@H](n5cnc6c(N)ncnc65)O[C@@H]4COP(=O)(O)O[C@@H]2[C@@H]3O)c(=O)[nH]1 [cGAMP, 2′,3′-Cyclic GMP-AMP, reference compound]",phosphorylation of TBK1 and IRF3,[1],increased
same,body weight change or signal of toxicity,[2],significant change in body weight or signal of toxicity was not observed
